Columns and labels:
[1] = molar heat capacity at constant pressure; settings: Liquid, Flow calorimetry
[2] = molar heat capacity at constant pressure; wn = mass fraction of the nth substance listed; settings: Liquid, Flow calorimetry, w2 = 0.995

CCO [ethanol]
molar heat capacity at constant pressure [J/K/mol], [1]
Settings | 100 kPa | 5000 kPa | 10000 kPa | 15000 kPa | 20000 kPa
273.17 K | 103.42 | 103.1 | 102.18 | 101.77 | 100.8
293.16 K | 111.62 | 111.02 | 109.97 | 108.95 | 108.21
313.18 K | 120.47 | 119.09 | 117.7 | 116.78 | 115.68
333.19 K | 130.65 | 129.73 | 128.35 | 126.83 | 125.91

COC(F)(F)C(F)(F)C(F)(F)F [heptafluoropropyl methyl ether]
[1]
Settings | molar heat capacity at constant pressure [J/K/mol]
255.05 K, 100 kPa | 233.26
255.06 K, 10000 kPa | 230.06
255.06 K, 15000 kPa | 229.26
255.08 K, 5000 kPa | 231.26
266.01 K, 100 kPa | 240.27
266.01 K, 5000 kPa | 238.67
266.02 K, 10000 kPa | 237.06
266.03 K, 15000 kPa | 236.46
275.04 K, 100 kPa | 245.47
275.04 K, 15000 kPa | 241.27
275.05 K, 5000 kPa | 244.27
275.11 K, 10000 kPa | 242.47
284.81 K, 100 kPa | 251.87
284.81 K, 5000 kPa | 250.07
284.86 K, 10000 kPa | 248.67
284.94 K, 15000 kPa | 247.47
294.05 K, 100 kPa | 257.67
294.07 K, 5000 kPa | 255.47
294.08 K, 10000 kPa | 254.47
294.1 K, 15000 kPa | 253.67

COC(F)(F)C(F)(C(F)(F)F)C(F)(F)F [methyl nonafluoroisobutyl ether] + COC(F)(F)C(F)(F)C(F)(F)C(F)(F)F
[2]
Settings | molar heat capacity at constant pressure [J/K/mol]
253.15 K, 5000 kPa | 209.05
253.16 K, 10000 kPa | 207.55
253.16 K, 15000 kPa | 205.55
253.17 K, 100 kPa | 214.05
264.15 K, 15000 kPa | 227.11
264.16 K, 5000 kPa | 230.61
264.17 K, 100 kPa | 232.86
264.18 K, 10000 kPa | 228.61
274.59 K, 15000 kPa | 249.36
274.63 K, 100 kPa | 257.81
274.63 K, 5000 kPa | 252.81
274.63 K, 10000 kPa | 250.86
284.25 K, 10000 kPa | 273.79
284.26 K, 100 kPa | 278.04
284.27 K, 5000 kPa | 275.79
284.3 K, 15000 kPa | 272.29
294.09 K, 5000 kPa | 297.5
294.09 K, 10000 kPa | 294.82
294.1 K, 100 kPa | 300.52
294.13 K, 15000 kPa | 294
303.94 K, 10000 kPa | 317.35
303.95 K, 100 kPa | 321.61
303.96 K, 5000 kPa | 319.35
303.96 K, 15000 kPa | 315.85
314.92 K, 100 kPa | 347.39
314.92 K, 5000 kPa | 345.14
314.92 K, 10000 kPa | 342.34
314.92 K, 15000 kPa | 340.08
323.71 K, 100 kPa | 374.09
323.72 K, 5000 kPa | 369.47
323.73 K, 10000 kPa | 367.47
323.74 K, 15000 kPa | 364.84

From the NIST ThermoML archive (doi:10.1016/j.fluid.2016.06.024)
